Results: article PMC9551036, “A selective and orally bioavailable VHL-recruiting PROTAC achieves SMARCA2 degradation in vivo” (Nature Communications, 2022)
Several values for one entry are separate records, joined by “and”; a condition that tells them apart may be missing. Equal values may be shown once. Read-outs that look alike come from different tables or passages of the source.

Key:
SMARCA2 = SMARCA2 (Homo sapiens, UniProt P51531); experiment: SMARCA2 capillary electrophoresis protein assay in other cell lines (A549, NCI-H1568, HCT116, LU99, HCC-364, HCT-15, HCC4006, SK-N-AS); format: cell-based; set-up: endogenous in cells; host or cells: RKO, NCI-H1568, A549, HCT116, LU99, HCC-364, HCT-15, HCC4006, SK-N-AS; conditions: for LogEC50: log10 of concentration in mol/l
Description: 130,000–200,000 cells were seeded in 24-well plates and incubated until settled down or overnight. Compounds were dissolved in DMSO and added to cells in indicated concentrations using a digital dispenser following an optional media change. Cells were incubated for 4 or 18 h as indicated. For SMARCA2/4 half-life determination, 150,000 or 200,000 cells were seeded in 24-well plates. The next day, 50 µg/ml cycloheximide (Sigma) was added and cells were incubated for 1–24 h. For SMARCA2/4 re-synthesis measurements, 200,000 cells were seeded in 24-well plates. The next day, 100 nM compound 6 was added for 4 h to degrade SMARCA2/4, and a sample was taken as baseline for normalisation. To allow re-synthesis, a VHL binder (compound 32, 25 or 50 µM) was then added for 3 or 24 h. Medium was removed, cells were washed with PBS and lysed with 80 µl Lysis Buffer (MSD Tris Lysis Buffer (#R60TX-2) + Halt Inhibitor Cocktail (100x) + Benzonase 0.5 µL/ml). Samples were frozen at −80 °C and thawed at room temperature before use. Samples were transferred to a V-bottom plate and insoluble debris was pelleted by centrifugation for 5 min at maximum speed. The supernatant was transferred to a fresh plate. Master Mix and Ladder were prepared according to manufacturer’s instructions for 12–230 kDa Wes Separation Module, 8 × 25 capillary cartridges, Protein Simple #SM-W004 with Anti-Rabbit Detection Module for Wes, Peggy Sue or Sally Sue, Protein Simple #DM-001. 4.8 µl lysate were mixed with 1.2 µl Master Mix to achieve a protein concentration of ~0.5 µg/µl. Antibodies were diluted in Antibody Diluent II (SMARCA2 Sigma #HPA029981 RRID:AB_10602406 1:25–100, SMARCA4 Cell Signalling #49360 clone D1Q7F RRID:AB_2728743 1:15–120 or Abcam #ab110641 clone EPNCIR111A RRID:AB_10861578 1:60, GAPDH Abcam #ab9485 RRID:AB_307275 1:250). Wes plates were prepared and run according to manufacturer’s instructions. Proteins were quantified with accompanying Compass Software. SMARCA2/4 protein levels were normalised to GAPDH. […] Where applicable, curves were fitted using a 4-parametric logistic model.

PBRM1BD5 [1] = experiment: TR-FRET ternary complex affinity and cooperativity, PBRM1; format: binding; conditions: ratio TR-FRET EC50 / TR-FRET EC50 +VCB measured in the same run, PBRM1BD5
PBRM1BD5 [2] = molecular target: T1, PBRM1BD5 (Homo sapiens, UniProt P40337+Q86U86); experiment: as above; format: binding; conditions: TR-FRET competition for PBRM1BD5, + VCB; mean ± SD; read-out: TR-FRET Ternary PBRM1BD EC50 (PROTAC + VCB)
T1 construct: GST (TEV site) (N); His6 (TEV site) (N, cleaved yes); made in house; host or cells: PBRM1^BD5: Escherichia coli BL21(DE3)

[3] = molecular target: VCB: PROTAC: SMARCA2^BD ternary complex (Homo sapiens, UniProt P40337+P51531); experiment: SPR ternary complex measurement, VCB immobilised, 10 µM SMARCA2^BD present; format: binding; set-up: P51531-2, residues 1373-1493 with additional N-terminal SM residues; His6 (TEV site) (N, cleaved yes); GST (TEV site) (N, cleaved yes); made in house; host or cells: SMARCA2^BD: Escherichia coli BL21(DE3); conditions: for Kd: SPR
Description: SPR data were acquired on Biacore 8K or T200 instruments (Cytiva). Target proteins were immobilised at 25 °C on CM5 chips by amine coupling (EDC/NHS, Cytiva) in HBS-P+ running buffer (pH 7.4), containing 2 mM TCEP. […] The reference surface was subsequently deactivated using 1 M ethanolamine. […] Biotinylated VCB was prepared as previously described[27]: in brief, the complex was mixed 1:1 with EZ-Link NHS–PEG4–biotin (Thermo Scientific) and incubated at room temperature for 1 h. Unreacted NHS-biotin was removed using a PD-10 desalting column (Cytiva) into 20 mM HEPES, pH 7.5, 150 mM sodium chloride and 1 mM DTT. The reference surface was generated by deactivating the EDC/NHS-treated surface with 1 M ethanolamine. All interaction experiments were done at 6 °C in running buffer (20 mM TRIS, pH 8.3, 150 mM potassium chloride, 2 mM magnesium chloride, 2 mM TCEP, 0.005% TWEEN 20, 1% dimethyl sulfoxide). For ternary complex measurements, a sensor chip surface with VCB immobilised was used (preparation as described above). Experiments were run in dual-inject mode with 10 µM SMARCA present during the injection and dissociation phase. Sensorgrams from reference surfaces and blank injections were subtracted from the raw data prior to data analysis using Biacore Insight software. Affinity and binding kinetic parameters were determined by global fitting using the 1:1 interaction model with a term for mass-transport included.

[4] = SK-N-AS_SM2, four-parameter fit

Sequence of VCB: PROTAC: SMARCA2^BD ternary complex (P40337 54-213): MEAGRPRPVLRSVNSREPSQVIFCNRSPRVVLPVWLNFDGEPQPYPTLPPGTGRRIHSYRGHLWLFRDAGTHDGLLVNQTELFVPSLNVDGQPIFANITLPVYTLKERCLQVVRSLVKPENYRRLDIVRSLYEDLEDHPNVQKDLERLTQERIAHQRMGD
Sequence of VCB: PROTAC: SMARCA2^BD ternary complex (Q15369 17-112 partner limits assumed): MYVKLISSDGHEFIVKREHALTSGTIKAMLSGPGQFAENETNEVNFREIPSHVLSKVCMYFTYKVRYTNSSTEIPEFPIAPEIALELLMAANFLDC
Sequence of VCB: PROTAC: SMARCA2^BD ternary complex (Q15370 1-104 partner limits assumed): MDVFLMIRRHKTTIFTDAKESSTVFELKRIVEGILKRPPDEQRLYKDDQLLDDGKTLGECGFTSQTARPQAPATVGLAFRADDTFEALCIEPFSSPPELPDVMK
Sequence of VCB: PROTAC: SMARCA2^BD ternary complex (P51531 1373-1493 isoform P51531-2): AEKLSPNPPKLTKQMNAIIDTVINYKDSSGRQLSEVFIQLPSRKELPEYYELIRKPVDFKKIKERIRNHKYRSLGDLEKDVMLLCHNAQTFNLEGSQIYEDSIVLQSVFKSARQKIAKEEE
Sequence of SMARCA2 (P51531 whole entry): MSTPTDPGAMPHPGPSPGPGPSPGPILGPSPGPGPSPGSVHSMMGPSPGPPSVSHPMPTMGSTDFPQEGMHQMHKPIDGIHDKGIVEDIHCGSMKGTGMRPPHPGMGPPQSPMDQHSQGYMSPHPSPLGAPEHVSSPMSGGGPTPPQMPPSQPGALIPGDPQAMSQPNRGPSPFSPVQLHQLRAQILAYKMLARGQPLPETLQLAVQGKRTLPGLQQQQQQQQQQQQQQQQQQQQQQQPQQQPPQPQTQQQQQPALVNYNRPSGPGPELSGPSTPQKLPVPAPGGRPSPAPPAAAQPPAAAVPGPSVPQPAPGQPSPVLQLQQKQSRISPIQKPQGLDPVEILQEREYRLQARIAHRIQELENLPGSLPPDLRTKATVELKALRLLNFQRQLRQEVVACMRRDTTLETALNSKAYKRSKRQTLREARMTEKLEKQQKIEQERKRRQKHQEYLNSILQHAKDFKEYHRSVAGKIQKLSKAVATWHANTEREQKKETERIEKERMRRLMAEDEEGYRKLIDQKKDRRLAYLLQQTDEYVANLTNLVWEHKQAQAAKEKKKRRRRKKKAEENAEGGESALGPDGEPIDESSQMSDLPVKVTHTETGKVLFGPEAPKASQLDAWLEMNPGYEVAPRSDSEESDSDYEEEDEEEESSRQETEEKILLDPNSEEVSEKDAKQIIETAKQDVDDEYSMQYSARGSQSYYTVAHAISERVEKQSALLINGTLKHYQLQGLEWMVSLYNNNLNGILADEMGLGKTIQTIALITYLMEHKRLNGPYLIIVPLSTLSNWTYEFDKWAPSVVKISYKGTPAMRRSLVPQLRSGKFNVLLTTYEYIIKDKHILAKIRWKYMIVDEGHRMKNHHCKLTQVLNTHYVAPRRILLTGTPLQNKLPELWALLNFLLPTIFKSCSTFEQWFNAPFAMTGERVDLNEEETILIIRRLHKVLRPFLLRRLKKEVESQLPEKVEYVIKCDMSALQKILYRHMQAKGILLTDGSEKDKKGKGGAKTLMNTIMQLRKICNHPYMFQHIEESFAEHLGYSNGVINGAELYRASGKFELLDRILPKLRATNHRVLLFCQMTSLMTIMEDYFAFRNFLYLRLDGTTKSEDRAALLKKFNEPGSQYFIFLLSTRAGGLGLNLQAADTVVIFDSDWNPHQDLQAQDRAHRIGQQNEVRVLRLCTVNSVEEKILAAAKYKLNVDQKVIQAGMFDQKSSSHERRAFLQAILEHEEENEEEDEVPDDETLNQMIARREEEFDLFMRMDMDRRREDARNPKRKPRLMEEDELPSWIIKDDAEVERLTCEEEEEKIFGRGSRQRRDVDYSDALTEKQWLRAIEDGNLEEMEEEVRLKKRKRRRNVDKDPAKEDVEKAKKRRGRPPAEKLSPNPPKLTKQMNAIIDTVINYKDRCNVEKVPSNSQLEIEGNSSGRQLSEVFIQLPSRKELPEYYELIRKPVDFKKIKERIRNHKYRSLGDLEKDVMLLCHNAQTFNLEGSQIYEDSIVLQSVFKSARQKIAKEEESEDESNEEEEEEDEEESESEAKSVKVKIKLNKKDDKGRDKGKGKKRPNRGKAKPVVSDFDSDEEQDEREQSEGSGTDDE
T1 sequence (Q86U86 645-766): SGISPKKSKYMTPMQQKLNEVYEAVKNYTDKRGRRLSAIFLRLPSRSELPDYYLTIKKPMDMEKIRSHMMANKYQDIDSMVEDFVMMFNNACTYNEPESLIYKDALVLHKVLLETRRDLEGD
T1 sequence (P40337 54-213): as the sequence (P40337 54-213) above
T1 sequence (Q15369 17-112 partner): as the sequence (Q15369 17-112 partner limits assumed) above
T1 sequence (Q15370 1-104 partner): as the sequence (Q15370 1-104 partner limits assumed) above

Cc1ncsc1-c1ccc(C(CCC(C)CCN2CCC(c3ccc4c(c3)n(C3CCCC3)c3nc(=O)c5c(Br)cccc5n43)CC2)NC(=O)C2CC(O)CN2C(=O)C(NC(=O)C2(F)CC2)C(C)(C)C)cc1 (stereo not drawn) [ACBI2]
DC50 (SMARCA2; HCT-15_SM2, protein degradation, four-parameter fit, read-out: EC50 (the source's name)): 163 nM
Bottom (best-fit value, % protein remaining) (SMARCA2; LU99_SM2, four-parameter fit): 4.814%
HillSlope (SMARCA2; LU99_SM2, four-parameter fit): -1.159
LogEC50 (SMARCA2; LU99_SM2): -8.209
DC50 (SMARCA2; LU99_SM2, protein degradation, four-parameter fit, read-out: EC50 (the source's name)): 6.18 nM
Dmax (SMARCA2; NCI-H1568 (4 h), mean ± SD): 86 ± 6%
DC50 (SMARCA2; NCI-H1568 (4 h), mean ± SD, read-out: SMARCA2 DC50): 13 ± 14 nM
Bottom (% protein remaining, four-parameter fit) (SMARCA2; NCI-H1568, 4h): 6.286%
HillSlope (protein remaining) (SMARCA2; NCI-H1568, 4h): -1.738
LogEC50 (protein remaining) (SMARCA2; NCI-H1568, 4h): -8.191 log10(mol/l)
Top (% protein remaining, four-parameter fit) (SMARCA2; NCI-H1568, 4h): 87.56%
% protein remaining (SMARCA2; NCI-H1568, 4h, conc 1.00001e-10 mol/l): 96.6234% and 94.5884%
% protein remaining (SMARCA2; NCI-H1568, 4h, conc 1.52416e-10 mol/l): 71.8933%
% protein remaining (SMARCA2; NCI-H1568, 4h, conc 3.1623e-10 mol/l): 72.7669% and 75.3978%
% protein remaining (SMARCA2; NCI-H1568, 4h, conc 4.57247e-10 mol/l): 96.5512%
% protein remaining (SMARCA2; NCI-H1568, 4h, conc 1.00001e-9 mol/l): 90.5385% and 93.373%
% protein remaining (SMARCA2; NCI-H1568, 4h, conc 1.37174e-9 mol/l): 95.3256%
% protein remaining (SMARCA2; NCI-H1568, 4h, conc 3.1623e-9 mol/l): 36.986%
% protein remaining (SMARCA2; NCI-H1568, 4h, conc 4.11523e-9 mol/l): 94.3111%
% protein remaining (SMARCA2; NCI-H1568, 4h, conc 1.00001e-8 mol/l): 19.3906% and 27.9502%
% protein remaining (SMARCA2; NCI-H1568, 4h, conc 1.23457e-8 mol/l): 37.9279%
% protein remaining (SMARCA2; NCI-H1568, 4h, conc 3.1623e-8 mol/l): 8.319% and 13.4554%
% protein remaining (SMARCA2; NCI-H1568, 4h, conc 3.7037e-8 mol/l): 11.4262%
% protein remaining (SMARCA2; NCI-H1568, 4h, conc 1.11111e-7 mol/l): 8.194%
% protein remaining (SMARCA2; NCI-H1568, 4h, conc 3.1623e-7 mol/l): 2.032% and 3.543%
% protein remaining (SMARCA2; NCI-H1568, 4h, conc 3.33333e-7 mol/l): 6.383%
% protein remaining (SMARCA2; NCI-H1568, 4h, conc 1e-6 mol/l): 9.793%
% protein remaining (SMARCA2; NCI-H1568, 4h, conc 1.00001e-6 mol/l): 2.382% and 3.308%
% protein remaining (SMARCA2; NCI-H1568, 4h, conc 3.1623e-6 mol/l): 2.029% and 3.947%
DC50 (SMARCA2; NCI-H1568, 4h, individual replicates, read-out: NCI-H1568 (4h) SMARCA2 DC50): 4.72 nM and 32.5 nM and 13 nM
DC50 (SMARCA2; NCI-H1568, 4h, read-out: EC50 (protein remaining)): 6.44 nM
Bottom (% protein remaining, four-parameter fit) (SMARCA2; NCI-H1568, 8h): 6.315%
HillSlope (protein remaining) (SMARCA2; NCI-H1568, 8h): -1.161
LogEC50 (protein remaining) (SMARCA2; NCI-H1568, 8h): -8.44 log10(mol/l)
Top (% protein remaining, four-parameter fit) (SMARCA2; NCI-H1568, 8h): 119.8%
% protein remaining (SMARCA2; NCI-H1568, 8h, conc 4.57247e-10 mol/l): 112.24%
% protein remaining (SMARCA2; NCI-H1568, 8h, conc 1.37174e-9 mol/l): 87.7845%
% protein remaining (SMARCA2; NCI-H1568, 8h, conc 4.11523e-9 mol/l): 63.6536%
% protein remaining (SMARCA2; NCI-H1568, 8h, conc 1.23457e-8 mol/l): 24.8248%
% protein remaining (SMARCA2; NCI-H1568, 8h, conc 3.7037e-8 mol/l): 13.998%
% protein remaining (SMARCA2; NCI-H1568, 8h, conc 1.11111e-7 mol/l): 8.2%
% protein remaining (SMARCA2; NCI-H1568, 8h, conc 3.33333e-7 mol/l): 6.313%
% protein remaining (SMARCA2; NCI-H1568, 8h, conc 1e-6 mol/l): 7.6382%
% protein remaining (SMARCA2; NCI-H1568, 8h, conc 3e-6 mol/l): 6.726%
DC50 (SMARCA2; NCI-H1568, 8h, read-out: EC50 (protein remaining)): 3.63 nM
Bottom (% protein remaining, four-parameter fit) (SMARCA2; NCI-H1568, 18h): 2.272%
HillSlope (protein remaining) (SMARCA2; NCI-H1568, 18h): -0.7655
LogEC50 (protein remaining) (SMARCA2; NCI-H1568, 18h): -9.556 log10(mol/l)
Top (% protein remaining, four-parameter fit) (SMARCA2; NCI-H1568, 18h): 215.6%
% protein remaining (SMARCA2; NCI-H1568, 18h, conc 1.52416e-10 mol/l): 134.073%
% protein remaining (SMARCA2; NCI-H1568, 18h, conc 4.57247e-10 mol/l): 84.9656%
% protein remaining (SMARCA2; NCI-H1568, 18h, conc 1.37174e-9 mol/l): 57.0296%
% protein remaining (SMARCA2; NCI-H1568, 18h, conc 4.11523e-9 mol/l): 23.442%
% protein remaining (SMARCA2; NCI-H1568, 18h, conc 1.23457e-8 mol/l): 12.5025%
% protein remaining (SMARCA2; NCI-H1568, 18h, conc 3.7037e-8 mol/l): 5.834%
% protein remaining (SMARCA2; NCI-H1568, 18h, conc 1.11111e-7 mol/l): 3.6967%
% protein remaining (SMARCA2; NCI-H1568, 18h, conc 3.33333e-7 mol/l): 2.8858%
% protein remaining (SMARCA2; NCI-H1568, 18h, conc 1e-6 mol/l): 3.302%
% protein remaining (SMARCA2; NCI-H1568, 18h, conc 3e-6 mol/l): 4.787%
DC50 (SMARCA2; NCI-H1568, 18h, read-out: EC50 (protein remaining)): 0.278 nM
Bottom (best-fit value, % protein remaining) (SMARCA2; [4]): 20.4%
HillSlope (SMARCA2; [4]): -1.475
LogEC50 (SMARCA2; SK-N-AS_SM2): -7.468
DC50 (SMARCA2; SK-N-AS_SM2, protein degradation, four-parameter fit, read-out: EC50 (the source's name)): 34 nM
cooperativity α (PBRM1BD) (PBRM1BD5 [1]): 13.8 ± 1.5
EC50 (PBRM1BD5 [2]): 5 ± 1 nM
Kd ([3]; ternary complex with SMARCA2BD, mean ± SD): 44 ± 11 nM
Kd ([3]; ternary, individual replicates): 35.8 nM and 56 nM and 41.1 nM
alpha ([3]; cooperativity, SMARCA2, ratio of KD values measured in the same run): 0.8
